Earlier results as cited in US10098922B1, “Increasing telomere length in a cell” (priority 2017, dated 2018).

Key:
[1] = tested on: doxorubicin-induced leukopenia; conditions: rats, oral by gavage
[2] = tested on: rats; conditions: AC-11 80 mg/kg plus doxorubicin vs doxorubicin only

| Mean heart weight coefficient [2] | Structure (SMILES) | Reversal of doxorubicin-induced leukopenia [1] |
| --- | --- | --- |
|  | O=C(O)[C@]1(O)C[C@@H](O)[C@@H](O)[C@H](O)C1 [QA, quinic acid] | about as effective as C-MED-100® |
| 0.369%±0.022 | COc1cccc2c1C(=O)c1c(O)c3c(c(O)c1C2=O)C[C@@](O)(C(=O)CO)C[C@@H]3O[C@H]1C[C@H](N)[C@H](O)[C@H](C)O1 [doxorubicin] |  |
|  | N.O=C(O)C1(O)CC(O)C(O)C(O)C1 (stereo not drawn) [QAA] | about as effective as C-MED-100® |
